Assay results reported in the METLIN SMRT retention time set (Domingo-Almenara et al. 2019).

Assay: gradient 5% acetonitrile 3 min, to 50% in 2 min, to 85% in 15 min, held 3 min, 100 µL/min
Conditions: column: Zorbax Extend-C18 2.1 x 50 mm; eluents: water / acetonitrile, 0.1% formic acid
Outline: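 In both positive and negative ionization mode, a quadrupole time-of-flight mass spectrometer coupled to HPLC analyzed pure standards run in mixtures of ~100 molecules. The Zorbax Extend-C18 column (2.1 × 50 mm, 1.8 μm) was operated at 100 μL/min with water and acetonitrile, each containing 0.1% formic acid. The dead volume was 40 μL and the dwell volume 900 μL. Retention time came from adduct peaks that were computationally picked and individually inspected by hand.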

Row | RP-LC retention time [s] | SMILES
1 | 861 | CC(C)CN1C(=O)CCc2cc(NS(=O)(=O)c3ccc(F)cc3)ccc21
2 | 792 | O=C(Nc1cccc(-c2ccc(N3CCOCC3)nn2)c1)Nc1ccc2c(c1)CCC2
3 | 1010 | CCc1ccccc1S(=O)(=O)N1CCC(C(=O)NCCc2csc(-c3ccccc3)n2)CC1
4 | 919 | CCCn1ccc2sc(C)c(C(=O)NCc3ccc(SC)cc3)c2c1=O
5 | 629 | COc1ccc(-n2nc3c(c2N)CSC3)cc1
6 | 1110 | COC(=O)c1ccc2c(=O)n(-c3ccc4c(c3)OCO4)c(N3CCN(c4ccccc4)CC3)nc2c1
7 | 556 | CCc1nc2c(NC(=O)Cc3cccnc3)cccn2n1
8 | 687 | CCc1ccc(S(=O)(=O)c2ccccc2)cc1S(=O)(=O)NCCCN(C)C
9 | 1040 | COC(=O)c1cc(OC)c(OC)cc1NC(=O)C1Oc2ccccc2OC1C (centres undefined)
10 | 1350 | CC1=C(c2ccc(C)c(C)c2)S(=O)(=O)N=C1N1CCC(NC(=O)NC(C)(C)C)CC1
11 | 609 | COc1ccc(-c2nc3cnccn3c2Nc2ccc(C(=O)N3CCOCC3)cc2)cc1OC
12 | 622 | NC(=O)CNC(=O)c1sc2ncccc2c1-n1cccc1
13 | 663 | COc1ccc(OC)c(NC(=O)c2cc(NC(=O)C(C)C)cc3nc(C)ccc23)c1
14 | 966 | Cc1ccc(C)c(CNC(=O)c2cc3c(=O)n(C)c4ccccc4n3n2)c1
15 | 635 | O=C(c1ccsc1)N1CCN(c2nnc3c(Cl)cccn23)CC1
16 | 786 | O=C1CC(C(F)(F)F)c2c(c(C(=O)O)cn2-c2ccc(Cl)cc2)N1 (centres undefined)
17 | 855 | CCc1nnc(NC(=O)CCc2ccc(-c3ccc(F)cc3)o2)s1
18 | 878 | CC(C)NC(=O)c1ccc(OCC2CCN(C(=O)c3ccc(Br)o3)CC2)cc1
19 | 776 | CC1=NS(=O)(=O)N(C)C=C1C(=O)OCc1c(C)noc1C
20 | 757 | O=C(Cn1nc(C(=O)N2CCCC2)c2ccccc21)NCc1ccc2c(c1)OCO2
21 | 762 | Cc1cc(=O)n(CC(=O)NCc2ccccc2Cl)c(N(C)Cc2ccccc2)n1
22 | 811 | CCn1c(=O)c2ccn(CC(=O)NCc3cc(OC)ccc3OC)c2n(CC)c1=O

Row | RP-LC retention time [s] | SMILES
23 | 699 | CCOc1ccc(S(=O)(=O)N2CCC(C(=O)NCCO)CC2)cc1C
24 | 587 | O=C(NCC#CCN1CCc2ccccc2C1)c1ccc(Cl)s1
25 | 1270 | COc1ccc(-c2noc(Cc3nc(-c4ccc(Cl)cc4)cs3)n2)cc1
26 | 783 | Cc1ccsc1C(=O)NCC1Cn2cccc2C(=O)N1CC(C)C (centres undefined)
27 | 1050 | O=C(C1CCN(S(=O)(=O)c2cc(-c3noc(C4CCC4)n3)cs2)CC1)N1CCCCCC1
28 | 655 | O=C(CCc1c(-c2ccc(F)cc2)nc2ccccn12)NCc1ccc2c(c1)OCO2
29 | 1170 | O=C(Nc1cccc(Cl)c1)C1CCN(c2nccnc2Sc2ccccc2)CC1
30 | 948 | COc1ccc(-c2noc(C3CCCN3C(=O)NC3CCCCC3)n2)cc1 (centres undefined)
31 | 808 | Cc1ccc(-c2csc(NC3OC(=O)c4ccccc43)n2)cc1C (centres undefined)
32 | 595 | CCCn1c(CN2CCCC2)nc2cc(NC(=O)C(C)C)ccc21
33 | 571 | Cc1nccn1CCNC(=O)C(=O)Nc1ccc2c(c1)N(C(=O)C(C)C)CCC2
34 | 671 | O=C(NC1CC1)C1CCN(c2ccc(=O)n(-c3ccc(F)cc3)n2)CC1
35 | 612 | O=C(NC1CCN(c2cc(-c3cccs3)[nH]n2)C1)c1ccncc1 (centres undefined)
36 | 821 | Cc1nn(CC(=O)N2CCN(c3ccc(Cl)cc3)CC2)c(=O)c2noc(C)c12
37 | 905 | O=C(Nc1ccc(OCc2nnc(-c3ccccc3)o2)cc1)c1ccccn1
38 | 639 | COC1C(=O)N(CC2CC2)C12CCN(C(=O)C1CC1)CC2 (centres undefined)
39 | 1060 | Cc1nc(-c2cc(S(=O)(=O)NC(C)Cc3ccco3)c(C)s2)sc1C (centres undefined)
40 | 1050 | O=c1c2ccccc2n(Cc2nc(-c3ccccc3)no2)c(=O)n1Cc1ccco1
41 | 826 | Cc1cccc(Cn2nc3ccc(S(=O)(=O)N4CCOCC4)cn3c2=O)c1
42 | 700 | Cc1ccc(NS(=O)(=O)c2cc3n(c2)CCN(C)C3=O)cc1
43 | 575 | Cc1oc(-c2[nH]ncc2C(=O)N2CCCCC2)cc1S(=O)(=O)NCc1ccncc1
44 | 693 | Cc1ccc(CNC(=O)C2c3ccccc3CC(=O)N2C)o1 (centres undefined)

Row | RP-LC retention time [s] | SMILES
45 | 677 | Cc1ccn2c(NC(=O)c3cccc([N+](=O)[O-])c3C)c(-c3ccccc3)nc2c1
46 | 804 | O=C1NCCCn2cc(S(=O)(=O)N3CCN(c4cccc(Cl)c4)CC3)cc21
47 | 727 | Cc1ccccc1CNC(=O)C1CCCN(c2nnc(C)c3c(C)n(-c4ccccc4)nc23)C1 (centres undefined)
48 | 591 | CCOC(=O)c1c(C)[nH]c(CCC(=O)NCCN(C)C)c1C
49 | 888 | COc1ccc(-c2noc(-c3nc(C)no3)n2)cc1OC
50 | 828 | COC(=O)CCNC(=O)c1cc2c(=O)n(CC(C)C)c3ccccc3n2n1
51 | 857 | COCc1cc(=O)n(CC(=O)Nc2cccc(SC)c2)c(N2CCOCC2)n1
52 | 697 | Cc1ccc(-c2cc3c(=O)n(Cc4noc(CN5CCCC5)n4)ccn3n2)cc1C
53 | 798 | COc1ccc2[nH]cc(CCNC(=O)C34CCC=C3N(C3CCCC3)C(=O)CC4)c2c1 (centres undefined)
54 | 531 | Cc1cc(=O)n(CC(=O)N2CCN(c3ccc(-c4ccccn4)nn3)CC2)cn1
55 | 1190 | COc1ccc(NC(=O)C2CCCN(c3nc4c(s3)c(C)nn4-c3ccccc3)C2)cc1Cl (centres undefined)
56 | 592 | Cc1ccc(CN2C[C@@H](CO)[C@H](c3nc(C)no3)C2)cc1
57 | 861 | CCN1C(=O)c2cccc3c(NC(=O)CSc4ccc(Cl)cc4)ccc1c23
58 | 912 | Cc1ccc(NC(=O)Nc2cccn3nc(C4CC4)nc23)cc1
59 | 1000 | O=C(Nc1cnc(-c2ccc(F)cc2)nc1)c1ccc(F)cc1
60 | 705 | Cc1ccccc1C(=O)NC1CCN(c2cc(-c3cccs3)[nH]n2)C1 (centres undefined)
61 | 672 | Cc1csc(-c2ccc(CNC(=O)c3cccnc3)cc2)n1
62 | 1230 | Cc1cccc(-c2noc(C3CCCN3S(=O)(=O)c3ccc(Br)cc3)n2)c1 (centres undefined)
63 | 833 | Cc1cccc(CN2C(=O)C3(CCOCC3)CC2c2nnnn2C(C)(C)C)c1 (centres undefined)
64 | 1140 | CCN1C(=O)COc2ccc(-c3noc(-c4ccccc4)n3)cc21
65 | 854 | CCCNC(=O)N1N=C(c2ccc(N)cc2)c2cc3c(cc2C1C)OCO3 (centres undefined)
66 | 799 | CCOC(=O)c1[nH]c(C)c(CCC(=O)N2CCCC(C(=O)NCc3cc(OC)ccc3OC)C2)c1C (centres undefined)

Row | RP-LC retention time [s] | SMILES
67 | 938 | COc1ccc(C(=O)NC2(c3nc(-c4cccnc4)no3)CCCCC2)cc1F
68 | 995 | CCCCCc1c(C)nn(-c2nc(CC(=O)Nc3nc4ccccc4[nH]3)cs2)c1C
69 | 682 | O=C(CN1CCN(Cc2ccccc2)C1=O)NCC1CCCCC1
70 | 1310 | CCCOc1nc2ccccc2nc1N1CCCC(C(=O)NC2CCCCC2C)C1 (centres undefined)
71 | 890 | CSc1ccc(-c2nc3cnccn3c2Nc2ccc3c(c2)OCO3)cc1
72 | 1030 | COc1cccc(-c2nc(Cc3nc(-c4ccccc4OC)oc3C)no2)c1
73 | 915 | Cn1cccc1CN(C(=O)c1ccc(F)cc1Cl)C1CC1
74 | 876 | CN(C1CCc2nn(CC3CC3)c(=O)n2CC1)S(=O)(=O)c1ccc(C(F)(F)F)cc1 (centres undefined)
75 | 630 | Cc1nnc(NC(=O)CCc2csc(NC(=O)c3ccco3)n2)s1
76 | 886 | Cc1cccc(S(=O)(=O)N2CCC(OCc3nc(C)no3)CC2)c1
77 | 648 | CC(C)n1cnc2cc(CNC(=O)C3(c4ccccc4)CC3)ccc21
78 | 1370 | Clc1cccc(-c2nnc(-c3nc(NCCC4=CCCCC4)c4ccccc4n3)o2)c1
79 | 803 | COc1ccc2nc(C(=O)NC(C)c3ccccc3)cn2n1 (centres undefined)
80 | 904 | Cc1ccc(-n2c(=O)n(C)c(=O)c3cc(C(=O)Nc4ccc(F)cc4)cnc32)cc1
81 | 678 | O=C(CN1CCC(c2nc(-c3ccc(F)cc3)no2)CC1)NC1CCCC1
82 | 665 | O=C(NC1CCCCC1)C1CCN(Cc2noc(-c3ccc(F)cc3)n2)CC1
83 | 1040 | Cc1nc(CSc2ncnc3sc4c(c23)CCC4)cs1
84 | 954 | Cc1oc2ccn(Cc3cccc(F)c3)c(=O)c2c1C(=O)NCc1ccc(F)cc1F
85 | 808 | COc1cccc(C2c3c(oc4ccc(C)cc4c3=O)C(=O)N2CCCN2CCOCC2)c1OC (centres undefined)
86 | 888 | COc1ccc(CNC(=O)Cn2c(=O)cc(-c3nc(C4CC4)no3)c3ccccc32)cc1
87 | 917 | COc1ccc(-c2csc(NC(=O)CCn3c(=O)sc4ccccc43)n2)cc1OC
88 | 916 | Cc1nc(-c2noc(-c3ccccc3)n2)cn1CC(=O)Nc1cccc(Cl)c1

Row | SMILES | RP-LC retention time [s]
89 | C[C@H](NC(=O)Cc1cc(F)cc(F)c1)C(=O)N[C@H]1N=C(c2ccccc2)c2ccccc2N(C)C1=O | 853
